Assays:
METTL14 = target: T1, METTL14 (Homo sapiens, UniProt Q9HCE5); assay: Immunoblotting (Western blot) degradation of METTL14 in MV4-11 cells; type: cell-based; conditions: MV4-11 cells, 24 h; for % reduction in MV4-11 cells, 0.3 µM, METTL14 / % reduction in MV4-11 cells, 1.0 µM, METTL14 / % degradation in MV4-11 cells, 0.3 µM, METTL14 / % degradation in MV4-11 cells, 1.0 µM, METTL14: immunoblotting; for % reduction in MV4-11 cells, 0.3 µM, METTL14 / % reduction in MV4-11 cells, 1.0 µM, METTL14: nd = no degradation
T1 construct: Following treatment, total cellular proteins were extracted using RIPA buffer; endogenous in cells; host or cells: MV4-11 (MV4.11) human AML cells, ATCC
T1 sequence (Q9HCE5 whole entry): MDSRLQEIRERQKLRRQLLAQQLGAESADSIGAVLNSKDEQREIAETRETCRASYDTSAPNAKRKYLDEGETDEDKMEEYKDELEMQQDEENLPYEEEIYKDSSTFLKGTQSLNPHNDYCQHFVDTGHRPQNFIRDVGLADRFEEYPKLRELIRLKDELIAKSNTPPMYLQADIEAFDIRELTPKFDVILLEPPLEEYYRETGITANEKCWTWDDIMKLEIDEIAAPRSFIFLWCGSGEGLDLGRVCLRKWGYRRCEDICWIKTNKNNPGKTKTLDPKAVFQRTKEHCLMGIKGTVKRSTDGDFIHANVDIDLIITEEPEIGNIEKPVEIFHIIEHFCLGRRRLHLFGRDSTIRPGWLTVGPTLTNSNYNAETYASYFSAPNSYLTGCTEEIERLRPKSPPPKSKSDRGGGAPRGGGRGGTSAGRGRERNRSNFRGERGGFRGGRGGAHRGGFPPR
T1 sequence (Q86U44 2-580 partner): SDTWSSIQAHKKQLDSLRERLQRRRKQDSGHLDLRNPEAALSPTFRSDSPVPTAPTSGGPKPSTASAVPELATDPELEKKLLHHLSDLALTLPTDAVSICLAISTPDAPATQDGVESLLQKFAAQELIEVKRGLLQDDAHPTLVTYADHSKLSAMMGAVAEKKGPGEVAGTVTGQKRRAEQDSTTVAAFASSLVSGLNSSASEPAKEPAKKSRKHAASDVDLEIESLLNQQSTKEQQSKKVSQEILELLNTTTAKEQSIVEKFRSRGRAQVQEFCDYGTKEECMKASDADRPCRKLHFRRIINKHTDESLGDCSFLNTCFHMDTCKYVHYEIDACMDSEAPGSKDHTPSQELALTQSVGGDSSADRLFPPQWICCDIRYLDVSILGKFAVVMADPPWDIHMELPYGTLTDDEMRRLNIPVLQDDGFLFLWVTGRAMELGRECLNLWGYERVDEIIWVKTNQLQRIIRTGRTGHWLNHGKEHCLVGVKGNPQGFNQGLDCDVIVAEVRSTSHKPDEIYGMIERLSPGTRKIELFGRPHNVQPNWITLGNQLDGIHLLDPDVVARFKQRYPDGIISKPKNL
Method: (§1) All cell lines were maintained under standard conditions in a humidified atmosphere at 37 °C with 5% CO₂.
(§2) Western Blot Analysis: Following treatment, total cellular proteins were extracted using RIPA buffer (Auragene, Changsha, China). […] After washing, membranes were incubated with horseradish peroxidase (HRP)-conjugated secondary antibodies (anti-rabbit or anti-mouse IgG; 1:5000) for 2 hours at room temperature. Protein bands were visualized using an enhanced chemiluminescence (ECL) detection kit (Amersham Pharmacia), following the manufacturer's protocol. Band intensities were quantified using ImageJ software and normalized to ACTIN as a loading control. Data was analyzed using GraphPad Prism 9.

METTL3 = METTL3 (Homo sapiens, UniProt Q86U44); assay: Immunoblotting (Western blot) degradation of METTL3 in MV4-11 cells; type: cell-based; set-up: Following treatment, total cellular proteins were extracted using RIPA buffer; endogenous in cells; host or cells: MV4-11 (MV4.11) human AML cells, ATCC; conditions: MV4-11 cells, 24 h; for % reduction in MV4-11 cells, 0.3 µM, METTL3 / % reduction in MV4-11 cells, 1.0 µM, METTL3 / % degradation in MV4-11 cells, 0.3 µM, METTL3 / % degradation in MV4-11 cells, 1.0 µM, METTL3: immunoblotting; for % reduction in MV4-11 cells, 0.3 µM, METTL3 / % reduction in MV4-11 cells, 1.0 µM, METTL3: nd = no degradation
METTL3, sequence (Q86U44 2-580 limits assumed): as the sequence (Q86U44 2-580 partner) above
METTL3, sequence (Q9HCE5 whole entry partner): as the sequence (Q9HCE5 whole entry) above
Method: as §1, §2

Structure (SMILES) | % reduction in MV4-11 cells, 0.3 µM, METTL14 (METTL14) | % reduction in MV4-11 cells, 1.0 µM, METTL14 (METTL14) | % reduction in MV4-11 cells, 0.3 µM, METTL3 (METTL3) | % reduction in MV4-11 cells, 1.0 µM, METTL3 (METTL3) | % degradation in MV4-11 cells, 0.3 µM, METTL14 (METTL14) | % degradation in MV4-11 cells, 1.0 µM, METTL14 (METTL14) | % degradation in MV4-11 cells, 0.3 µM, METTL3 (METTL3) | % degradation in MV4-11 cells, 1.0 µM, METTL3 (METTL3) | also measured
CC1(C)CCN(Cc2cc(F)c(N3CC(=O)NC4(CCN(c5cc(NCCCCC(=O)N6CCN(c7ccc8c(c7)C(=O)N(C7CCC(=O)NC7=O)C8=O)CC6)ncn5)CC4)C3)cc2F)CC1 (stereo not shown) [Compound 4a, 5-(4-(5-((6-(4-(4-((4,4-dimethylpiperidin-1-yl)methyl)-2,5-difluorophenyl)-2-oxo-1,4,9-triazaspiro[5.5]undecan-9-yl)pyrimidin-4-yl)amino)pentanoyl)piperazin-1-yl)-2-(2,6-dioxopiperidin-3-yl)isoindoline-1,3-dione] | 6% | 27% | 14% | 47% |  |  |  |  | 
CC1(C)CCN(Cc2cc(F)c(N3CC(=O)NC4(CCN(c5cc(NCCCCCC(=O)N6CCN(c7ccc8c(c7)C(=O)N(C7CCC(=O)NC7=O)C8=O)CC6)ncn5)CC4)C3)cc2F)CC1 (stereo not shown) [Compound 4b, 5-(4-(6-((6-(4-(4-((4,4-dimethylpiperidin-1-yl)methyl)-2,5-difluorophenyl)-2-oxo-1,4,9-triazaspiro[5.5]undecan-9-yl)pyrimidin-4-yl)amino)hexanoyl)piperazin-1-yl)-2-(2,6-dioxopiperidin-3-yl)isoindoline-1,3-dione] | 36% | 58% | 45% | 56% |  |  |  |  | 
CC1(C)CCN(Cc2cc(F)c(N3CC(=O)NC4(CCN(c5cc(NCCCCCCC(=O)N6CCN(c7ccc8c(c7)C(=O)N(C7CCC(=O)NC7=O)C8=O)CC6)ncn5)CC4)C3)cc2F)CC1 (stereo not shown) [Compound 4c, 5-(4-(7-((6-(4-(4-((4,4-dimethylpiperidin-1-yl)methyl)-2,5-difluorophenyl)-2-oxo-1,4,9-triazaspiro[5.5]undecan-9-yl)pyrimidin-4-yl)amino)heptanoyl)piperazin-1-yl)-2-(2,6-dioxopiperidin-3-yl)isoindoline-1,3-dione] | 46% | 61% | 43% | 62% |  |  |  |  | 
CC1(C)CCN(Cc2cc(F)c(N3CC(=O)NC4(CCN(c5cc(NCCCCCCCC(=O)N6CCN(c7ccc8c(c7)C(=O)N(C7CCC(=O)NC7=O)C8=O)CC6)ncn5)CC4)C3)cc2F)CC1 (stereo not shown) [Compound 4d, 5-(4-(8-((6-(4-(4-((4,4-dimethylpiperidin-1-yl)methyl)-2,5-difluorophenyl)-2-oxo-1,4,9-triazaspiro[5.5]undecan-9-yl)pyrimidin-4-yl)amino)octanoyl)piperazin-1-yl)-2-(2,6-dioxopiperidin-3-yl)isoindoline-1,3-dione] | 51% | 67% | 52% | 68% |  |  |  |  | 
CC1(C)CCN(Cc2cc(F)c(N3CC(=O)NC4(CCN(c5cc(NCCCCCCCCC(=O)N6CCN(c7ccc8c(c7)C(=O)N(C7CCC(=O)NC7=O)C8=O)CC6)ncn5)CC4)C3)cc2F)CC1 (stereo not shown) [Compound 4e, 5-(4-(9-((6-(4-(4-((4,4-dimethylpiperidin-1-yl)methyl)-2,5-difluorophenyl)-2-oxo-1,4,9-triazaspiro[5.5]undecan-9-yl)pyrimidin-4-yl)amino)nonanoyl)piperazin-1-yl)-2-(2,6-dioxopiperidin-3-yl)isoindoline-1,3-dione] | 39% | 53% | 38% | 52% |  |  |  |  | 
CC1(C)CCN(Cc2cc(F)c(N3CC(=O)NC4(CCN(c5cc(NCCCCCCC(=O)N6CCN(c7ccc8c(c7)CN(C7CCC(=O)NC7=O)C8=O)CC6)ncn5)CC4)C3)cc2F)CC1 (stereo not shown) [Compound 4g, 3-(5-(4-(7-((6-(4-(4-((4,4-dimethylpiperidin-1-yl)methyl)-2,5-difluorophenyl)-2-oxo-1,4,9-triazaspiro[5.5]undecan-9-yl)pyrimidin-4-yl)amino)heptanoyl)piperazin-1-yl)-1-oxoisoindolin-2-yl)piperidine-2,6-dione] | 0% | 34% | 9% | 25% |  |  |  |  | 
CC1(C)CCN(Cc2cc(F)c(N3CC(=O)NC4(CCN(c5cc(NCCCCCCCC(=O)N6CCN(c7ccc8c(c7)CN(C7CCC(=O)NC7=O)C8=O)CC6)ncn5)CC4)C3)cc2F)CC1 (stereo not shown) [Compound 4h, 3-(5-(4-(8-((6-(4-(4-((4,4-dimethylpiperidin-1-yl)methyl)-2,5-difluorophenyl)-2-oxo-1,4,9-triazaspiro[5.5]undecan-9-yl)pyrimidin-4-yl)amino)octanoyl)piperazin-1-yl)-1-oxoisoindolin-2-yl)piperidine-2,6-dione] | 40% | 64% | 46% | 69% |  |  |  |  | 
CC1(C)CCN(Cc2cc(F)c(N3CC(=O)NC4(CCN(c5cc(NCCCCCCCCC(=O)N6CCN(c7ccc8c(c7)CN(C7CCC(=O)NC7=O)C8=O)CC6)ncn5)CC4)C3)cc2F)CC1 (stereo not shown) [Compound 4i, 3-(5-(4-(9-((6-(4-(4-((4,4-dimethylpiperidin-1-yl)methyl)-2,5-difluorophenyl)-2-oxo-1,4,9-triazaspiro[5.5]undecan-9-yl)pyrimidin-4-yl)amino)nonanoyl)piperazin-1-yl)-1-oxoisoindolin-2-yl)piperidine-2,6-dione] | 54% | 72% | 52% | 73% |  |  |  |  | 
CN1C(=O)CCC(N2Cc3cc(N4CCN(C(=O)CCCCCCCCCNc5cc(N6CCC7(CC6)CN(c6cc(F)c(CN8CCC(C)(C)CC8)cc6F)CC(=O)N7)ncn5)CC4)ccc3C2=O)C1=O (stereo not shown) [Compound 4k, 3-(5-(4-(10-((6-(4-(4-((4,4-dimethylpiperidin-1-yl)methyl)-2,5-difluorophenyl)-2-oxo-1,4,9-triazaspiro[5.5]undecan-9-yl)pyrimidin-4-yl)amino)decanoyl)piperazin-1-yl)-1-oxoisoindolin-2-yl)-1-methylpiperidine-2,6-dione] |  |  |  |  |  |  |  |  | degradation of METTL14 at 1 µM (in words) (METTL14; 1 µM, Fig. 4A right): not degraded; degradation of METTL14 (in words) (METTL14; Table 1 screening): did not induce degradation; degradation of METTL3 at 1 µM (in words) (METTL3; 1 µM, Fig. 4A right): not degraded; degradation of METTL3 (in words) (METTL3; Table 1 screening): did not induce degradation

The next lines start with results.

% reduction in MV4-11 cells, 0.3 µM, METTL14 (METTL14) | % reduction in MV4-11 cells, 1.0 µM, METTL14 (METTL14) | % reduction in MV4-11 cells, 0.3 µM, METTL3 (METTL3) | % reduction in MV4-11 cells, 1.0 µM, METTL3 (METTL3) | % degradation in MV4-11 cells, 0.3 µM, METTL14 (METTL14) | % degradation in MV4-11 cells, 1.0 µM, METTL14 (METTL14) | % degradation in MV4-11 cells, 0.3 µM, METTL3 (METTL3) | % degradation in MV4-11 cells, 1.0 µM, METTL3 (METTL3) | Structure (SMILES) | also measured
 |  |  |  | 8% | 21% | 33% | 52% | CNc1cc(N2CCC3(CC2)CN(c2cc(F)c(CN4CCC(C)(C(=O)NCCCCNc5cccc6c5C(=O)N(C5CCC(=O)NC5=O)C6=O)CC4)cc2F)CC(=O)N3)ncn1 (stereo not shown) [Compound 5a, 1-(2,5-difluoro-4-(9-(6-(methylamino)pyrimidin-4-yl)-2-oxo-1,4,9-triazaspiro[5.5]undecan-4-yl)benzyl)-N-(4-((2-(2,6-dioxopiperidin-3-yl)-1,3-dioxoisoindolin-4-yl)amino)butyl)-4-methylpiperidine-4-carboxamide] | 
 |  |  |  | 20% | 21% | 55% | 56% | CNc1cc(N2CCC3(CC2)CN(c2cc(F)c(CN4CCC(C)(C(=O)NCCCCCCNc5cccc6c5C(=O)N(C5CCC(=O)NC5=O)C6=O)CC4)cc2F)CC(=O)N3)ncn1 (stereo not shown) [Compound 5b, 1-(2,5-difluoro-4-(9-(6-(methylamino)pyrimidin-4-yl)-2-oxo-1,4,9-triazaspiro[5.5]undecan-4-yl)benzyl)-N-(6-((2-(2,6-dioxopiperidin-3-yl)-1,3-dioxoisoindolin-4-yl)amino)hexyl)-4-methylpiperidine-4-carboxamide] | 
 |  |  |  | 20% | 24% | 50% | 54% | CNc1cc(N2CCC3(CC2)CN(c2cc(F)c(CN4CCC(C)(C(=O)NCCCCCCCCNc5cccc6c5C(=O)N(C5CCC(=O)NC5=O)C6=O)CC4)cc2F)CC(=O)N3)ncn1 (stereo not shown) [Compound 5c, 1-(2,5-difluoro-4-(9-(6-(methylamino)pyrimidin-4-yl)-2-oxo-1,4,9-triazaspiro[5.5]undecan-4-yl)benzyl)-N-(8-((2-(2,6-dioxopiperidin-3-yl)-1,3-dioxoisoindolin-4-yl)amino)octyl)-4-methylpiperidine-4-carboxamide] | 
 |  |  |  | 34% | 21% | 26% | 3% | CNc1cc(N2CCC3(CC2)CN(c2cc(F)c(CN4CCC(C)(C(=O)NCCCCCCCCCCNc5cccc6c5C(=O)N(C5CCC(=O)NC5=O)C6=O)CC4)cc2F)CC(=O)N3)ncn1 (stereo not shown) [Compound 5d, 1-(2,5-difluoro-4-(9-(6-(methylamino)pyrimidin-4-yl)-2-oxo-1,4,9-triazaspiro[5.5]undecan-4-yl)benzyl)-N-(10-((2-(2,6-dioxopiperidin-3-yl)-1,3-dioxoisoindolin-4-yl)amino)decyl)-4-methylpiperidine-4-carboxamide] | 

From paper PMC12615518, “Discovery of CRBN-recruiting PROTAC degraders of the METTL3-METTL14 complex” (Medicinal Chemistry Research, 2025)
